Experimental data taken from the supplement of paper PMC10307832.

Legend:
Experiment in all cases: relative viability (nuclei count vs DMSO), 5 days (fraction); higher = more cells survive
ChaGo-K-1 = tested on: ChaGo-K-1
Method in brief: (§1)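 One day after seeding in 1536-well plates, lung cancer cell lines were dosed by pin tool. Dosing was either single-drug or a fixed anchor-drug dose plus five library-drug doses (not always all listed) in √10 steps. After 5 days, nuclei were stained in one fix-and-stain step and counted on 4× images, and relative viability is the nuclei count of treated wells over that of vehicle wells, given as the median of duplicate plates.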

EMC-BAC-2 = tested on: EMC-BAC-2
Method in brief: as §1

EPLC-272H = tested on: EPLC-272H
Method in brief: as §1

HCC-44 = tested on: HCC-44
Method in brief: as §1

HOP-62 = tested on: HOP-62
Method in brief: as §1

LCLC-103H = tested on: LCLC-103H
Method in brief: as §1

LOU-NH91 = tested on: LOU-NH91
Method in brief: as §1

NCI-H1437 = tested on: NCI-H1437
Method in brief: as §1

NCI-H1793 = tested on: NCI-H1793
Method in brief: as §1

NCI-H2009 = tested on: NCI-H2009
Method in brief: as §1

NCI-H2023 = tested on: NCI-H2023
Method in brief: as §1

NCI-H2126 = tested on: NCI-H2126
Method in brief: as §1

NCI-H2170 = tested on: NCI-H2170
Method in brief: as §1

NCI-H2347 = tested on: NCI-H2347
Method in brief: as §1

NCI-H23 = tested on: NCI-H23
Method in brief: as §1

NCI-H2405 = tested on: NCI-H2405
Method in brief: as §1

NCI-H441 = tested on: NCI-H441
Method in brief: as §1

NCI-H460 = tested on: NCI-H460
Method in brief: as §1

NCI-H520 = tested on: NCI-H520
Method in brief: as §1

NCI-H647 = tested on: NCI-H647
Method in brief: as §1

NCI-H650 = tested on: NCI-H650
Method in brief: as §1

NCI-H727 = tested on: NCI-H727
Method in brief: as §1

SW 1573 = tested on: SW 1573
Method in brief: as §1

Cc1cnc(-c2cnc(NCCNc3ccc(C#N)cn3)nc2-c2ccc(Cl)cc2Cl)[nH]1 + O=C(CCCCCCC(=O)Nc1ccccc1)NO [Vorinostat] (partner 1 µM)
relative viability (ChaGo-K-1; first compound 0.08 µM): 0.742
relative viability (ChaGo-K-1; first compound 0.253 µM): 0.649
relative viability (ChaGo-K-1; first compound 0.8 µM): 0.604
relative viability (ChaGo-K-1; first compound 2.53 µM): 0.664
relative viability (EMC-BAC-2; first compound 0.08 µM): 0.46
relative viability (EMC-BAC-2; first compound 0.253 µM): 0.397
relative viability (EMC-BAC-2; first compound 0.8 µM): 0.373
relative viability (EMC-BAC-2; first compound 2.53 µM): 0.372
relative viability (EPLC-272H; first compound 0.08 µM): 0.658
relative viability (EPLC-272H; first compound 0.8 µM): 0.531
relative viability (EPLC-272H; first compound 2.53 µM): 0.581
relative viability (HCC-44; first compound 0.08 µM): 1.05
relative viability (HCC-44; first compound 0.253 µM): 1.16
relative viability (HCC-44; first compound 0.8 µM): 1.03
relative viability (HCC-44; first compound 2.53 µM): 1.24
relative viability (HOP-62; first compound 0.08 µM): 0.733
relative viability (HOP-62; first compound 0.8 µM): 0.545
relative viability (HOP-62; first compound 2.53 µM): 0.594
relative viability (LCLC-103H; first compound 0.08 µM): 0.728
relative viability (LCLC-103H; first compound 0.253 µM): 0.541
relative viability (LCLC-103H; first compound 0.8 µM): 0.689
relative viability (LCLC-103H; first compound 2.53 µM): 0.698
relative viability (LOU-NH91; first compound 0.08 µM): 0.972
relative viability (LOU-NH91; first compound 0.253 µM): 0.878
relative viability (LOU-NH91; first compound 0.8 µM): 0.942
relative viability (LOU-NH91; first compound 2.53 µM): 0.978
relative viability (NCI-H1437; first compound 0.08 µM): 0.829
relative viability (NCI-H1437; first compound 0.253 µM): 0.774
relative viability (NCI-H1437; first compound 0.8 µM): 0.828
relative viability (NCI-H1437; first compound 2.53 µM): 0.853
relative viability (NCI-H1793; first compound 0.08 µM): 0.59
relative viability (NCI-H1793; first compound 0.253 µM): 0.666
relative viability (NCI-H1793; first compound 0.8 µM): 0.739
relative viability (NCI-H1793; first compound 2.53 µM): 0.864
relative viability (NCI-H2009; first compound 0.08 µM): 0.738
relative viability (NCI-H2009; first compound 0.253 µM): 0.676
relative viability (NCI-H2009; first compound 0.8 µM): 0.659
relative viability (NCI-H2009; first compound 2.53 µM): 0.725
relative viability (NCI-H2023; first compound 0.08 µM): 0.897
relative viability (NCI-H2023; first compound 0.253 µM): 0.473
relative viability (NCI-H2023; first compound 0.8 µM): 0.465
relative viability (NCI-H2023; first compound 2.53 µM): 0.731
relative viability (NCI-H2126; first compound 0.08 µM): 0.775
relative viability (NCI-H2126; first compound 0.253 µM): 0.695
relative viability (NCI-H2126; first compound 0.8 µM): 0.703
relative viability (NCI-H2126; first compound 2.53 µM): 0.819
relative viability (NCI-H2170; first compound 0.08 µM): 0.837
relative viability (NCI-H2170; first compound 0.8 µM): 0.734
relative viability (NCI-H2170; first compound 2.53 µM): 0.714
relative viability (NCI-H2347; first compound 0.08 µM): 0.56
relative viability (NCI-H2347; first compound 0.253 µM): 0.568
relative viability (NCI-H2347; first compound 0.8 µM): 0.604
relative viability (NCI-H2347; first compound 2.53 µM): 0.597
relative viability (NCI-H23; first compound 0.08 µM): 0.568
relative viability (NCI-H23; first compound 0.253 µM): 0.475
relative viability (NCI-H23; first compound 0.8 µM): 0.575
relative viability (NCI-H23; first compound 2.53 µM): 0.529
relative viability (NCI-H2405; first compound 0.08 µM): 1.02
relative viability (NCI-H2405; first compound 0.253 µM): 0.985
relative viability (NCI-H2405; first compound 0.8 µM): 0.909
relative viability (NCI-H2405; first compound 2.53 µM): 0.661
relative viability (NCI-H441; first compound 0.08 µM): 0.823
relative viability (NCI-H441; first compound 0.8 µM): 0.737
relative viability (NCI-H441; first compound 2.53 µM): 0.738
relative viability (NCI-H460; first compound 0.08 µM): 0.71
relative viability (NCI-H460; first compound 0.253 µM): 0.618
relative viability (NCI-H460; first compound 0.8 µM): 0.625
relative viability (NCI-H460; first compound 2.53 µM): 0.58
relative viability (NCI-H520; first compound 0.08 µM): 0.814
relative viability (NCI-H520; first compound 0.253 µM): 0.678
relative viability (NCI-H520; first compound 0.8 µM): 0.725
relative viability (NCI-H520; first compound 2.53 µM): 0.772
relative viability (NCI-H647; first compound 0.08 µM): 0.609
relative viability (NCI-H647; first compound 0.253 µM): 0.399
relative viability (NCI-H647; first compound 0.8 µM): 0.743
relative viability (NCI-H647; first compound 2.53 µM): 0.357
relative viability (NCI-H650; first compound 0.08 µM): 0.544
relative viability (NCI-H650; first compound 0.253 µM): 0.423
relative viability (NCI-H650; first compound 0.8 µM): 0.4
relative viability (NCI-H650; first compound 2.53 µM): 0.443
relative viability (NCI-H727; first compound 0.08 µM): 1.18
relative viability (NCI-H727; first compound 0.253 µM): 0.787
relative viability (NCI-H727; first compound 0.8 µM): 1.02
relative viability (NCI-H727; first compound 2.53 µM): 1.23
relative viability (SW 1573; first compound 0.08 µM): 0.849
relative viability (SW 1573; first compound 0.253 µM): 0.815
relative viability (SW 1573; first compound 0.8 µM): 0.463
relative viability (SW 1573; first compound 2.53 µM): 0.224
